Measurements as given in patent US20230148418A1, “TYROSINASE ANTISENSE OLIGONUCLEOTIDES” (OLIPASS CORPORATION, priority 2017, published 2023).
[C(1O2)] = PNA monomer with modified cytosine nucleobase C(1O2); [A(5)] = PNA monomer with modified adenine nucleobase A(5); [G(6)] = PNA monomer with modified guanine nucleobase G(6); {Fethoc} = Fethoc N-terminal cap of the PNA; {NH2} = C-terminal amide of the PNA

Legend:
Type in all cases: cell-based
human TYR mRNA = experiment: Nested qPCR for TYR mRNA in human primary epidermal melanocytes; conditions: 1 zM to 10 aM, 5 hours, significant at 1 zM and 10 aM
Procedure: “ASO 1” was evaluated by TYR nested qPCR for its ability to induce changes in the TYR mRNA level in human primary epidermal melanocytes as follows.
[Cell Culture & ASO Treatment] Primary epidermal melanocytes (Cat. Number PCS-200-013, ATCC) cells were maintained in Dermal Cell Basal Medium (Cat Number PCS-200-030, ATCC) supplemented with Adult Melanocyte Growth Kit Component (Cat. Number PCS-200-042, ATCC). Melanocytes grown in 60 mm culture dish containing 5 mL culture medium were treated with “ASO 1” at 0 zM (negative control), 1 zM, 100 zM, or 10 aM. (3 culture dishes per concentration)
[RNA Extraction & cDNA Synthesis by One-step PCR] Following an incubation with “ASO 1” for 5 hours, total RNA was extracted using “RNeasy Mini Kit” (Cat. Number 74106, Qiagen) according to the manufacturer's instructions. 200 ng of RNA template was subjected to a 25 μL reverse transcription reaction using Super Script® One-Step RT-PCR kit with Platinum® Taq polymerase (Cat. No. 10928-042, Invitrogen) against a set of exon-specific primers of [exon 1_forward(2): (5′→3′) CTCTTTGTCTGGATGCATT; and exon 5_reverse: (5′→3′) CTGTGGTAATCCTCTTTCT] according to the following cycle conditions specified: 50° C., for 30 min and 94° C. for 2 min, which was followed by 15 cycles of 30 sec at 94° C., 30 sec at 50° C., and 1 min at 72° C.
(§1) [Nested PCR Amplification] […]

TYR protein = TYR protein expression by western blot in B16F10 mouse melanoma cells; conditions: 10 zM to 10 aM, 24 hours
Procedure: “ASO 1M” was evaluated for its ability to down-regulate the TYR protein expression in B16F10 mouse melanoma cells as described below.
B16F10 cells grown in 60 mm culture dish containing 5 mL DMEM were treated with “ASO 1M” at 0 zM (negative control), 10 zM, 100 zM, 1 aM or 10 aM. 24 hours later, cells were washed 2 times with cold PBS (phosphate buffered saline), and then subjected to lysis with 200 μl 1× cell lysis butler (Cat. No. 9803, Cell Signaling Tech) supplemented with 1× protease inhibitors cocktail (Cat. No. P8340, Sigma). 200 μl of each lysate in 1.5 mL e-tube was mixed with […] 5× sample buffer, and boiled at 100° C. for 5 min. 20 μl of the lysate was subjected to electrophoretic separation on a 4-15% gradient TGX gel (Cat No. 456-1086, Bio-Rad), and protein transfer on a 0.45 μm PVDF membrane. The membrane was probed with an anti-TYR antibody (Cat. No. 9319, Cell Signaling Tech) and anti-β-actin antibody (Cat. No. a3845, Sigma).

mouse TYR mRNA = experiment: Nested qPCR for TYR mRNA in B16F10 mouse melanoma cells; conditions: 1 to 1,000 aM, 5 hours, normalized to no treatment, significant
Procedure: “ASO 1M” was evaluated by TYR nested qPCR for its ability to induce changes in the mouse TYR mRNA level in B16F10 cells as described below.
[Cell Culture & ASO Treatment] B16F10 cells grown in 60 mm culture dish containing 5 mL DMEM were treated with “ASO 1M” at 0 (negative control), 1, 10,100 or 1000 aM. (2 culture dishes per dose)
[RNA Extraction & cDNA Synthesis by One-step PCR] Following an incubation with “ASO 1M” for 5 hours, total RNA was extracted from cells using “Universal RNA Extraction Kit” (Cat. No. 9767, Takara) according to the manufacturer's instructions. 200 ng of RNA template were used for a 25 μl reverse transcription reaction using One Step RT-PCR kit (Invitrogen, USA) against a set of exon specific primers of [exon 1_forward: (5′→3′) GTAAGTTTGGATTTGGGG; and exon 4_reverse: (5′→3′) AGAGCGGTATGAAAGGAA] according to the following cycle conditions: 50° C. for 30 min and 94° C. for 2 min, followed by 15 cycles of 30 sec at 94° C., 30 sec at 52° C., and 40 sec at. 72° C.
[Nested qPCR Amplification] The cDNA solutions were diluted by 100 times, and 1 μl of each diluted PCR product was subjected to a 20 μl Real-Time PCR reaction with a Taqman probe set spanning the junction of exon 2 and exon 3 (Cat. No. Mm00495818_m1, Thermo Fisher Scientific) according to the following cycle conditions: 95° C. for 3 min followed by 30 cycles 10 sec at 95° C., and 30 sec at 60° C. […]

mouse TYR pre-mRNA = experiment: Exon skipping by nested PCR in B16F10 mouse melanoma cells; conditions: 1 to 1,000 aM, 5 hours, untreated cells gave full-length and exons 2-3 skipped bands
Procedure: [Cell Culture & ASO Treatment] B16F10 mouse melanoma cells (Cat. Number CRL-6475, ATCC) were maintained in DMEM (Dulbecco's modified Eagle's essential minimum medium) supplemented with 10% FBS, 1% streptomycin/penicillin, and 0.01 mg/ml bovine insulin. B16F10 cells grown in 60 mm culture dish containing 5 mL DMEM were incubated for 5 hours with “ASO 1M” at 0 (negative control), 1, 10,100 or 1000 aM.
[RNA Extraction & cDNA Synthesis by One-step PCR] Following an incubation for 5 hours, total RNA was extracted using “Universal RNA Extraction Kit” (Cat. Number 9767, Takara) according to the manufacturer's instructions. 200 ng of RNA template was used for a 25 μl reverse transcription reaction using Super Script® One-Step RT-PCR kit with Platinum® Taq polymerase (Cat. No. 10928-042, Invitrogen) against a set of exon-specific primers of [exon1_forward: (5′→3′) GTAAGTTTGGATTTGGGG; and exon 4_reverse: (5′→3′) AGAGC-GGTATGAAAGGAA] according to the following cycle conditions: 50° C. for 30 min and 94° C. for 2 min, followed by 15 cycles of 30 sec at 94° C. 30 sec at 52° C. and 40 sec at 72° C.
as §1
[Identification of Exon Skipping Products] […] The hands of target size were collected and analyzed by Sanger Sequencing.

With “Fathoc-CA(5)G-ACA(5)-ATC(1O2)-TG(6)T-A(5)-NH2 (CAGACAATCTGTA; all peptide nucleic acid (PNA), [A(5)] at 2, 6, 13, [C(1O2)] at 9, [G(6)] at 11, 5' {Fethoc}, 3' {NH2}; further chemistry not given here) [ASO 1, 13-mer PNA derivative targeting the 3′ splice site of exon 2 in the human TYR pre-mRNA]” the “Decrease of full-length TYR mRNA level” value (human TYR mRNA) was roughly 30%.
With “Fethoc-CA(5)A-A(5)TG-A(5)TC(1O2)-TG(6)T-G-NH2 (CAAATGATCTGTG; all peptide nucleic acid (PNA), [A(5)] at 2, 4, 7, [C(1O2)] at 9, [G(6)] at 11, 5' {Fethoc}, 3' {NH2}; further chemistry not given here) [ASO 1M, 13-mer PNA derivative targeting the 3′ splice site of exon 2 in the mouse TYR pre-mRNA; surrogate for ASO 1]” the “Band intensity of TYR expression versus negative control” value (TYR protein) was “considerably weaker”, the “Decrease of full-length TYR mRNA level” value (mouse TYR mRNA) was roughly 40% and the “Exon skipping: PCR products by electrophoresis” value (mouse TYR pre-mRNA) was “yielded only the splice variant TYR mRNA lacking exons 2 and 3”.
